Results: patent US20090118286A1, “Heterobicyclic Acrylamides” (Bayer Cropscience AG, priority 2005, published 2009)

Assay: log P determination by HPLC (EEC Directive 79/831 Annex V.A8, gradient method)
Format: physicochemical

| Physical data: logP | Physical data (logP) | SMILES | also measured |
| --- | --- | --- | --- |
| 2.71 | – | CCC(C)NC(=O)/C=C/c1c(-c2ccccc2Cl)nc2sc(COC)nn12 (stereo not shown) [Example 0825] | – |
| – | 4.08 | O=Cc1c(-c2ccc(-c3ccccc3)cc2)nc2sc(C(F)(F)F)nn12 [IVA118] | – |
| 3.51 | – | Cc1cn2c(/C=C/C(=O)NCC(F)(F)C(F)(F)C(F)(F)F)c(-c3ccccc3Cl)nc2s1 [Example 0881] | – |
| – | 2.92 | O=Cc1c(-c2sccc2Cl)nc2sc(C(F)(F)F)nn12 [IVA124] | – |
| 4.21 | – | O=C(/C=C/c1c(-c2ccccc2Cl)nc2sc(-c3ccc(C(F)(F)F)cc3)nn12)NCC(F)(F)F [Example 0844] | – |
| – | 3.18 | O=C(/C=C/c1c(-c2ccccc2Cl)nc2sc(C(F)(F)F)nn12)NOCC1CC1 [Example 0211] | – |
| – | – | CN(C)C(=O)/C=C/c1c(-c2cccc(C(F)(F)F)c2)nc2sc(C(F)(F)F)nn12 [Example 0429] | Physical data: log P: 3.68 |
| – | – | Cc1ccccc1-c1nc2sc(C(F)(F)F)nn2c1/C=C/C(=O)NC1CC1 [Example 0233] | Physical data: log P: 2.99 |
| 1.94 | – | Cc1csc2nc(-c3ccccc3Cl)c(/C=C/C(=O)NC3CC3)n12 [Example 0895] | – |
| 2.54 | – | CCC(C)NC(=O)/C=C/c1c(-c2ccccc2Cl)nc2sc(C)cn12 (stereo not shown) [Example 0869] | – |
| – | 3.63 | O=C(/C=C/c1c(-c2cccc(Cl)c2)nc2sc(C(F)(F)F)nn12)NOCC1CC1 [Example 0130] | – |
| 3.96 | – | CC(C)NC(=O)/C=C/c1c(-c2ccccc2Cl)nc2sc(-c3ccc(C(F)(F)F)cc3)nn12 [Example 0846] | – |
| 2.71 | – | COCc1nn2c(/C=C/C(=O)NCC(C)C)c(-c3ccccc3Cl)nc2s1 [Example 0816] | – |
| 5 | – | O=C(/C=C/c1c(-c2ccccc2Cl)nc2sc(-c3ccc(C(F)(F)F)cc3)nn12)NCC(F)(F)C(F)(F)C(F)(F)F [Example 0859] | – |
| 3.65 | – | CC(NC(=O)/C=C/c1c(-c2sccc2Cl)nc2sc(C(F)(F)F)nn12)C(F)(F)F (racemic) [Example 0922] | – |
| – | – | CCC(CC)NC(=O)/C=C/c1c(-c2cccc(C(F)(F)F)c2)nc2sc(C(F)(F)F)nn12 [Example 0428] | Physical data: log P: 4.41 |
| 3.72 | – | CC(C)CNC(=O)/C=C/c1c(-c2ccccc2Cl)nc2sc(C(C)(C)C)nn12 [Example 0794] | – |
| – | – | CC(C)NC(=O)/C=C/c1c(-c2cccc(C(F)(F)F)c2)nc2sc(C(F)(F)F)nn12 [Example 0371] | Physical data: log P: 3.85 |
| 2.75 | – | Cc1csc2nc(-c3ccccc3Cl)c(/C=C/C(=O)NCCC(C)C)n12 [Example 0886] | – |
| – | 4.32 | CC(NC(=O)/C=C/c1c(-c2ccc(Cl)cc2)nc2sc(C(F)(F)F)nn12)c1ccccc1 (stereo not shown) [Example 0038] | – |
| – | – | O=C(/C=C/c1c(-c2ccc(F)cc2)nc2sc(C(F)(F)F)nn12)NC1CCCCC1 [Example 0307] | Physical data: log P: 3.99 |
| – | – | CCN(C)C(=O)/C=C/c1c(-c2cccc(C(F)(F)F)c2)nc2sc(C(F)(F)F)nn12 [Example 0430] | Physical data: log P: 4.05 |
| – | 3.03 | O=Cc1c(-c2nccs2)nc2sc(C(F)(F)C(F)(F)F)nn12 [IVA114] | – |
| 4.28 | – | O=C(/C=C/c1c(-c2ccc(F)cc2Cl)nc2sc(C(F)(F)F)nn12)N1CCCC(C(F)(F)F)C1 (stereo not shown) [Example 0648] | – |
| 3.53 | – | CCN(CC)C(=O)/C=C/c1c(-c2ccc(OC)c(OC)c2)nc2sc(C(F)(F)F)nn12 [Example 0716] | – |

| Physical data: logP | Physical data (logP) | SMILES | also measured |
| --- | --- | --- | --- |
| – | 4.23 | CC(C)(C)NC(=O)/C=C/c1c(-c2ccc(Cl)cc2)nc2sc(C(F)(F)F)nn12 [Example 0009] | – |
| 3.33 | – | CC(C)NC(=O)/C=C/c1c(-c2ccccc2Cl)nc2sc(C(C)(C)C)nn12 [Example 0802] | – |
| – | 4.28 | CCN(CC)C(=O)/C=C/c1c(-c2cccc(Cl)c2)nc2sc(C(F)(F)F)nn12 [Example 0140] | – |
| – | 2.82 | CCNC(=O)/C=C/c1c(-c2ccccc2Cl)nc2sc(C(F)(F)F)nn12 [Example 0147] | – |
| – | 3.81 | CC(NC(=O)/C=C/c1c(-c2ccccc2Cl)nc2sc(C(F)(F)F)nn12)c1ccccc1 (racemic) [Example 0189] | – |
| – | – | O=C(/C=C/c1c(-c2ccc(F)cc2)nc2sc(C(F)(F)F)nn12)N1CCOCC1 [Example 0365] | Physical data: log P: 2.91 |
| 3.79 | – | CCN(CC)C(=O)/C=C/c1c(-c2ccc(F)cc2Cl)nc2sc(C(F)(F)F)nn12 [Example 0644] | – |
| 4.08 | – | CC(C)(C)c1nn2c(/C=C/C(=O)NCC(F)(F)C(F)(F)F)c(-c3ccccc3Cl)nc2s1 [Example 0814] | – |
| 4.72 | – | CC(C)CCNC(=O)/C=C/c1c(-c2ccccc2Cl)nc2sc(-c3ccc(C(F)(F)F)cc3)nn12 [Example 0842] | – |
| – | 3.63 | O=Cc1c(-c2ccc(F)cc2Cl)nc2sc(C(F)(F)C(F)(F)F)nn12 [IVA112] | – |
| – | – | Cc1ccccc1-c1nc2sc(C(F)(F)F)nn2c1/C=C/C(=O)NOC(C)c1ccccc1 (stereo not shown) [Example 0284] | Physical data: log P: 3.81 |
| – | – | COCC(C)NC(=O)/C=C/c1c(-c2ccc(F)cc2)nc2sc(C(F)(F)F)nn12 (stereo not shown) [Example 0311] | Physical data: log P: 3.07 |
| 3.76 | – | CCC(NC(=O)/C=C/c1c(-c2ccc(OC)c(OC)c2)nc2sc(C(F)(F)F)nn12)c1ccccc1 (stereo not shown) [Example 0684] | – |
| – | 2.62 | O=Cc1c(-c2cncc(Br)c2)nc2sc(C(F)(F)F)nn12 [IVA115] | – |
| 3.23 | – | CC(C)NC(=O)/C=C/c1c(-c2ccccc2Cl)nc2sc(C(F)(F)F)cn12 [Example 0906] | – |
| – | 2.48 | O=C(O)/C=C/c1c(-c2nccs2)nc2sc(C(F)(F)F)nn12 [VA115] | – |
| 3 | – | Cc1cn2c(/C=C/C(=O)NCCC(C)C)c(-c3ccccc3Cl)nc2s1 [Example 0864] | – |
| – | 3.25 | O=C(O)/C=C/c1c(-c2csc(Cl)n2)nc2sc(C(F)(F)C(F)(F)F)nn12 [VA136] | – |
| 2.74 | – | Cc1csc2nc(-c3ccccc3Cl)c(/C=C/C(=O)NC3CCCCC3)n12 [Example 0898] | – |
| 3.54 | – | COCc1nn2c(C=CC(=O)NC(C(C)C)C(F)(F)F)c(-c3ccccc3Cl)nc2s1 (stereo not shown) [Example 0818] | – |
| 2.35 | – | Cc1cn2c(/C=C/C(=O)NC(C)C)c(-c3ccccc3Cl)nc2s1 [Example 0868] | – |
| – | – | CC(C)(C)NC(=O)/C=C/c1c(-c2ccc(F)cc2)nc2sc(C(F)(F)F)nn12 [Example 0302] | Physical data: log P: 3.81 |
| – | 4.37 | O=C(/C=C/c1c(-c2ccc(Cl)cc2)nc2sc(C(F)(F)F)nn12)NC1CCCCC1 [Example 0014] | – |
| – | – | Cc1ccccc1-c1nc2sc(C(F)(F)F)nn2c1/C=C/C(=O)NC(C)c1ccccc1 (stereo not shown) [Example 0260] | Physical data: log P: 3.94 |
| 3.9 | – | Cc1cn2c(/C=C/C(=O)Nc3ccc(OC(F)(F)F)cc3)c(-c3ccccc3Cl)nc2s1 [Example 0878] | – |

| Physical data: logP | Physical data (logP) | SMILES | also measured |
| --- | --- | --- | --- |
| 3.41 | – | COc1ccc(-c2nc3sc(C(F)(F)F)nn3c2/C=C/C(=O)N2CCCCC2)cc1OC [Example 0717] | – |
| – | – | CCC(NC(=O)C=Cc1c(-c2cccc(C(F)(F)F)c2)nc2sc(C(F)(F)F)nn12)C1CCCCC1 (stereo not shown) [Example 0409] | Physical data: log P: 5.48 |
| 5.61 | – | O=C(/C=C/c1c(-c2ccccc2Cl)nc2sc(-c3ccc(C(F)(F)F)cc3)nn12)Nc1ccc(C(F)(F)F)cc1 [Example 0857] | – |
| – | – | Cc1ccccc1-c1nc2sc(C(F)(F)F)nn2c1/C=C/C(=O)NOCC1CC1 [Example 0282] | Physical data: log P: 3.26 |
| 3.41 | – | COc1ccc(-c2nc3sc(C(F)(F)F)nn3c2/C=C/C(=O)NC(C)C(C)C)cc1OC (stereo not shown) [Example 0668] | – |
| – | 3.27 | O=C(/C=C/c1c(-c2ccc(Cl)cc2)nc2sc(C(F)(F)F)nn12)N1CCOCC1 [Example 0072] | – |
| – | – | C=CCN(C)C(=O)/C=C/c1c(-c2cccc(C(F)(F)F)c2)nc2sc(C(F)(F)F)nn12 [Example 0431] | Physical data: log P: 4.22 |
| – | 3.81 | O=C(/C=C/c1c(-c2cccc(Cl)c2)nc2sc(C(F)(F)F)nn12)NCC1CC1 [Example 0086] | – |
| – | 4.51 | CC(COc1ccccc1)NC(=O)/C=C/c1c(-c2ccc(Cl)cc2)nc2sc(C(F)(F)F)nn12 (stereo not shown) [Example 0043] | – |
| – | 3.55 | O=C(/C=C/c1c(-c2ccccc2Cl)nc2sc(C(F)(F)F)nn12)NC1CCCC1 [Example 0154] | – |
| – | 3.73 | O=C(O)/C=C/c1c(-c2ccc(OCc3ccccc3)cc2)nc2sc(C(F)(F)F)nn12 [VA122] | – |
| 4.46 | – | CCC(NC(=O)/C=C/c1c(-c2ccc(OC)c(OC)c2)nc2sc(C(F)(F)F)nn12)C1CCCCC1 (stereo not shown) [Example 0691] | – |
| 4.68 | – | CC(C)(C)CNC(=O)/C=C/c1c(-c2ccccc2Cl)nc2sc(-c3ccc(C(F)(F)F)cc3)nn12 [Example 0841] | – |
| 2.76 | – | CC(NC(=O)/C=C/c1c(-c2cccnc2Cl)nc2sc(C(F)(F)F)nn12)C(F)(F)F (racemic) [Example 0948] | – |
| 2.85 | – | COc1ccc(-c2nc3sc(C(F)(F)F)nn3c2/C=C/C(=O)NC(C)C)cc1OC [Example 0652] | – |
| 4.32 | – | CC(C)(C)c1nn2c(/C=C/C(=O)NC3CCC(C(F)(F)F)CC3)c(-c3ccccc3Cl)nc2s1 (stereo not shown) [Example 0799] | – |
| – | – | CC(COc1ccccc1)NC(=O)/C=C/c1c(-c2ccc(Cl)cc2Cl)nc2sc(C(F)(F)F)nn12 (stereo not shown) [Example 0546] | Physical data: log P: 4.56 |
| – | – | O=C(/C=C/c1c(-c2cccc(C(F)(F)F)c2)nc2sc(C(F)(F)F)nn12)NC1CCC1 [Example 0376] | Physical data: log P: 4.03 |
| – | 4.27 | CC(C)(C)NC(=O)/C=C/c1c(-c2cccc(Cl)c2)nc2sc(C(F)(F)F)nn12 [Example 0080] | – |
| – | 4.03 | O=C(/C=C/c1c(-c2ccc(Cl)cc2)nc2sc(C(F)(F)F)nn12)NC1CCCC1 [Example 013] | – |
| 5.27 | – | O=C(/C=C/c1c(-c2ccccc2Cl)nc2sc(-c3ccc(C(F)(F)F)cc3)nn12)NC1CCC(Cl)CC1 (stereo not shown) [Example 0855] | – |
| – | 4.56 | CCC(NC(=O)/C=C/c1c(-c2ccc(Cl)cc2)nc2sc(C(F)(F)F)nn12)c1ccccc1 (stereo not shown) [Example 0039] | – |
| 4.86 | – | O=C(/C=C/c1c(-c2ccccc2Cl)nc2sc(-c3ccc(C(F)(F)F)cc3)nn12)NC1CCC(C(F)(F)F)CC1 (stereo not shown) [Example 0843] | – |
